Laboratory results as given in ChEMBL document CHEMBL4483862, “Open-source discovery of chemical leads for next-generation chemoprotective antimalarials” (2018).

Tested on: Plasmodium berghei
Assay: Luciferase/luciferin-expressing antifolate-resistant parasites were used to infect a culture of HepG2 cells that were pre-incubated with compounds. Infected hepatocytes emit light due to the luciferase reaction. Assay results are presented as the percent inhibition of light emission compared to control. […]
Assay type: functional
Conditions: sporozoite; for IC90: read-out: LUCIFERASE INFECTION ASSAY - IC90
[1] = read-out: LUCIFERASE INFECTION ASSAY - IC50

CC(C)(C)c1cc(CCC(=O)NNC(=S)NC(=O)c2ccccc2)cc(C(C)(C)C)c1O
IC50 (HEPG2TOX_HILL_SLOPE 3.85, HEPG2TOX_R_SQUARED 0.996, PBLUC_HILL_SLOPE 11.4, PBLUC_R_SQUARED 0.664, read-out: LUCIFERASE INFECTION ASSAY - IC50): 3.1 µM | IC90: 3.76 µM

COc1cccc(CN(C)S(=O)(=O)NC2CCC(C)CC2)c1 (stereo not given)
IC50 (HEPG2TOX_HILL_SLOPE 1.57, HEPG2TOX_R_SQUARED 0.723, PBLUC_HILL_SLOPE 2.26, PBLUC_R_SQUARED 0.44, read-out: LUCIFERASE INFECTION ASSAY - IC50): 7.19 µM | IC90: > 10 µM

O=C(CCc1c[nH]c2ccccc12)Nc1ccc(N2CCc3sccc3C2)nc1
IC50 [1]: 8.67 µM | IC90: > 10 µM

Cc1ccc2cc(COC(=O)/C(=C/c3ccccc3)n3nnnc3C)c(Cl)nc2c1
IC50 (FFLUC_HILL_SLOPE 11.2, FFLUC_R_SQUARED 0.126, read-out: LUCIFERASE INFECTION ASSAY - IC50): > 10 µM | IC90: > 10 µM

CCOc1ccc(-c2nc(CSc3nnc(-c4ccccc4OC)n3CC)cs2)cc1
IC50 (HEPG2TOX_HILL_SLOPE 10.1, HEPG2TOX_R_SQUARED 0.28, PBLUC_HILL_SLOPE 16.2, PBLUC_R_SQUARED 0.242, read-out: LUCIFERASE INFECTION ASSAY - IC50): 9.09 µM | IC90: > 10 µM

CN(C)c1ccc(/C=c2\s/c(=C\C#N)n(CC(=O)c3ccccc3)c2=O)cc1
IC50 (FFLUC_HILL_SLOPE 120, FFLUC_R_SQUARED 0.489, HEPG2TOX_HILL_SLOPE 0.599, HEPG2TOX_R_SQUARED 0.179, PBLUC_HILL_SLOPE 1.11, PBLUC_R_SQUARED 0.152, read-out: LUCIFERASE INFECTION ASSAY - IC50): 5.8 µM | IC90: > 10 µM

O=C(c1cccs1)N1CCc2[nH]nc(-c3ccc(Cl)cc3)c2C1
IC50 [1]: > 9.6 µM | IC90: > 9.6 µM

CC(=O)Nc1ccc(-c2ccnc3c2CC(C(=O)Nc2cccc(C(F)(F)F)c2)O3)cc1 (stereo not given)
IC50 [1]: 4.23 µM | IC90: > 7.48 µM

CC(C)(C)c1ccc(-c2cc(NC(=O)c3ccc(Cl)cc3Cl)[nH]n2)cc1
IC50 (HEPG2TOX_HILL_SLOPE 2.82, HEPG2TOX_R_SQUARED 0.976, PBLUC_HILL_SLOPE 3.98, PBLUC_R_SQUARED 0.745, read-out: LUCIFERASE INFECTION ASSAY - IC50): 1.77 µM | IC90: 3.08 µM

NS(=O)(=O)c1ccc(CNC(=O)Cn2cnc3ccccc3c2=O)cc1
IC50 (PBLUC_HILL_SLOPE 11.1, PBLUC_R_SQUARED 0.12, read-out: LUCIFERASE INFECTION ASSAY - IC50): > 8.86 µM | IC90: > 8.86 µM

CCn1c2ccccc2c2cc(Nc3cc(-c4cc(OC)c(OC)c(OC)c4)ncn3)ccc21
IC50 (HEPG2TOX_HILL_SLOPE 1.37, HEPG2TOX_R_SQUARED 0.859, PBLUC_HILL_SLOPE 1.98, PBLUC_R_SQUARED 0.713, read-out: LUCIFERASE INFECTION ASSAY - IC50): 0.426 µM | IC90: 1.29 µM

O=C(N/N=C/c1ccc(N2CCCCC2)s1)c1ccccc1O
IC50 (PBLUC_HILL_SLOPE 8.76, 2.86, PBLUC_R_SQUARED 0.104, 0.555, read-out: LUCIFERASE INFECTION ASSAY - IC50): 3.37 µM | IC90: 5.71 µM

C=CCn1c(SCC(=O)Nc2sc(C)c(C)c2C(=O)OCC)nc2scc(-c3ccc(OC)cc3)c2c1=O
IC50 (FFLUC_HILL_SLOPE 9.8, FFLUC_R_SQUARED 0.347, HEPG2TOX_HILL_SLOPE 0.0825, HEPG2TOX_R_SQUARED 0.0539, PBLUC_HILL_SLOPE 3.18, PBLUC_R_SQUARED 0.293, read-out: LUCIFERASE INFECTION ASSAY - IC50): 5.66 µM | IC90: > 10 µM

CC(C)c1ccc(CN2CCN(C(=O)CNC(=O)c3ccc(Br)o3)CC2)cc1
IC50 (PBLUC_HILL_SLOPE 3.89, PBLUC_R_SQUARED 0.276, read-out: LUCIFERASE INFECTION ASSAY - IC50): 9.05 µM | IC90: > 10 µM

Clc1ccc(CNc2ncnc3sccc23)cc1
IC50 [1]: 3.31 µM | IC90: > 10 µM

COC(=O)c1ccc(/C=C2\Oc3cc(O)cc(C)c3C2=O)cc1
IC50 (FFLUC_HILL_SLOPE 2.39, FFLUC_R_SQUARED 0.815, read-out: LUCIFERASE INFECTION ASSAY - IC50): > 10.6 µM | IC90: > 10.6 µM

CC(C)(C)c1ccc2nc(/C(=C\c3ccc(F)cc3)NC(=O)c3ccccc3)[nH]c2c1
IC50 (PBLUC_HILL_SLOPE 14.3, PBLUC_R_SQUARED 0.247, read-out: LUCIFERASE INFECTION ASSAY - IC50): 6.92 µM | IC90: > 7.98 µM

Nc1ncnc(N/N=C/c2ccc(O)cc2O)c1[N+](=O)[O-]
IC50 (FFLUC_HILL_SLOPE 17.8, FFLUC_R_SQUARED 0.491, HEPG2TOX_HILL_SLOPE 1.97, HEPG2TOX_R_SQUARED 0.831, read-out: LUCIFERASE INFECTION ASSAY - IC50): > 10 µM | IC90: > 10 µM

O=C(N/N=C/C1=C(N2CCOCC2)C(=C\c2ccccc2)/CC1)c1ccco1
IC50 [1]: 2.96 µM | IC90: 3.47 µM

O=C(OCc1ccc(Cl)cc1)c1cnc(NNc2ncc(C(=O)OCc3ccc(Cl)cc3)c(C(F)(F)F)n2)nc1C(F)(F)F
IC50 (FFLUC_HILL_SLOPE 1.7, FFLUC_R_SQUARED 0.396, HEPG2TOX_HILL_SLOPE 1.81, HEPG2TOX_R_SQUARED 0.829, PBLUC_HILL_SLOPE 10.6, PBLUC_R_SQUARED 0.55, read-out: LUCIFERASE INFECTION ASSAY - IC50): 0.554 µM | IC90: 0.682 µM

C=CCn1c(SCc2cn3c(C)cccc3n2)nc2sc(C)c(C)c2c1=O
IC50 (FFLUC_HILL_SLOPE 10.3, FFLUC_R_SQUARED 0.131, HEPG2TOX_HILL_SLOPE 7.8, HEPG2TOX_R_SQUARED 0.483, read-out: LUCIFERASE INFECTION ASSAY - IC50): > 10 µM | IC90: > 10 µM

Cc1nn(-c2ccccc2)c(C)c1CC(=O)Nc1ccc2c(c1)OC(F)(F)O2
IC50 [1]: > 10 µM | IC90: > 10 µM

CC1CC(C)CN(Cc2nc(=O)c3c(-c4ccc(Cl)cc4)csc3[nH]2)C1 (stereo not given)
IC50 (FFLUC_HILL_SLOPE 12.3, FFLUC_R_SQUARED 0.735, PBLUC_HILL_SLOPE 4.47, PBLUC_R_SQUARED 0.339, read-out: LUCIFERASE INFECTION ASSAY - IC50): 4.07 µM | IC90: 6.66 µM

N#Cc1c(SCc2ccc(Cl)cc2)nc2c(c1-c1cccs1)CCCC2
IC50 (FFLUC_HILL_SLOPE 2.42, FFLUC_R_SQUARED 0.441, PBLUC_HILL_SLOPE 1.78, PBLUC_R_SQUARED 0.144, read-out: LUCIFERASE INFECTION ASSAY - IC50): 7.61 µM | IC90: > 8.31 µM

O=C(NNc1ccccc1)c1cccs1
IC50 (HEPG2TOX_HILL_SLOPE 91.6, HEPG2TOX_R_SQUARED 0.623, PBLUC_HILL_SLOPE 5.23, PBLUC_R_SQUARED 0.266, read-out: LUCIFERASE INFECTION ASSAY - IC50): 4.82 µM | IC90: 7.33 µM

O=[N+]([O-])c1ccc(CSc2nc3cc(Cl)c(F)cc3[nH]2)cc1
IC50 [1]: > 7.88 µM | IC90: > 7.88 µM

CCCn1c(SCC(=O)N(C)C(C)c2nc3ccccc3s2)nc2sc3c(c2c1=O)CCC3 (stereo not given)
IC50 (HEPG2TOX_HILL_SLOPE 1.5, HEPG2TOX_R_SQUARED 0.705, PBLUC_HILL_SLOPE 172, PBLUC_R_SQUARED 0.534, read-out: LUCIFERASE INFECTION ASSAY - IC50): 3.33 µM | IC90: 3.37 µM

COc1ccc(-c2cnc3ccc(NCc4ccccn4)nn23)cc1OC
IC50 (HEPG2TOX_HILL_SLOPE 0.427, HEPG2TOX_R_SQUARED 0.871, PBLUC_HILL_SLOPE 2.47, PBLUC_R_SQUARED 0.694, read-out: LUCIFERASE INFECTION ASSAY - IC50): 2.41 µM | IC90: 5.88 µM

CC(Sc1ncnc2sc(-c3ccccc3)cc12)C(=O)N1CCNC1=O (stereo not given)
IC50 (PBLUC_HILL_SLOPE 3.73, PBLUC_R_SQUARED 0.46, read-out: LUCIFERASE INFECTION ASSAY - IC50): 5.98 µM | IC90: > 10 µM

O=C1CCN(Cc2ccc(Cl)cc2)N1
IC50 (PBLUC_HILL_SLOPE 1.7, PBLUC_R_SQUARED 0.276, read-out: LUCIFERASE INFECTION ASSAY - IC50): 14.1 µM | IC90: > 15.7 µM

Cc1csc(NC(=O)Nc2cc(C(F)(F)F)cc(C(F)(F)F)c2)c1Cl
IC50 (HEPG2TOX_HILL_SLOPE 3.35, HEPG2TOX_R_SQUARED 0.976, PBLUC_HILL_SLOPE 39.1, PBLUC_R_SQUARED 0.116, read-out: LUCIFERASE INFECTION ASSAY - IC50): 2.47 µM | IC90: 2.61 µM

C=CCNc1sc(C(=O)/C(C#N)=C2\Nc3ccccc3S2)c(N)c1C(=O)Nc1ccc(Cl)cc1
IC50 (FFLUC_HILL_SLOPE 4, FFLUC_R_SQUARED 0.164, HEPG2TOX_HILL_SLOPE 6.65, HEPG2TOX_R_SQUARED 0.57, PBLUC_HILL_SLOPE 11, PBLUC_R_SQUARED 0.696, read-out: LUCIFERASE INFECTION ASSAY - IC50): 3.38 µM | IC90: 4.13 µM

CC1c2ccsc2CCN1C(=S)NC(=O)c1ccc(Cl)cc1 (stereo not given)
IC50 (HEPG2TOX_HILL_SLOPE 6.89, HEPG2TOX_R_SQUARED 0.823, PBLUC_HILL_SLOPE 41.7, PBLUC_R_SQUARED 0.0283, read-out: LUCIFERASE INFECTION ASSAY - IC50): 9.18 µM | IC90: > 9.4 µM

Cc1noc(-c2ccc(Cl)cc2)c1C(=O)ONC(=N)c1ccc(C(F)(F)F)cc1
IC50 [1]: > 7.79 µM | IC90: > 7.79 µM

C/N=c1\scc(-c2ccccc2OC)n1/N=C/c1ccc[nH]1
IC50 (PBLUC_HILL_SLOPE 6.06, PBLUC_R_SQUARED 0.259, read-out: LUCIFERASE INFECTION ASSAY - IC50): 0.0426 µM | IC90: 0.0612 µM

NC(=O)c1c(NC(=O)/C=C/c2cn(-c3ccccc3)nc2-c2cccnc2)sc2c1CCCC2
IC50 [1]: > 10 µM | IC90: > 10 µM

c1nc(NCC23CC4CC(CC(C4)C2)C3)c2sccc2n1
IC50 [1]: > 10 µM | IC90: > 10 µM

COc1cc(-c2cc(-c3ccc(F)c(Cl)c3)cnc2N)ccc1O
IC50 (PBLUC_HILL_SLOPE 11.9, PBLUC_R_SQUARED 0.433, read-out: LUCIFERASE INFECTION ASSAY - IC50): 8.61 µM | IC90: > 9.57 µM

O=C(/C=C/c1ccco1)Nc1ccc(Cl)cc1Cl
IC50 [1]: 9.77 µM | IC90: 11.1 µM

O=C(/C=C/c1cn(-c2ccccc2)nc1-c1ccc(F)cc1)NCC1(N2CCCCC2)CCCCC1
IC50 [1]: > 10 µM | IC90: > 10 µM
